Peptide text beside a SMILES is read from it.
Tests used:
rat hippocampus = test: Direct injection into rat hippocampus, histological effects (length of hippocampal cell layers destroyed); assay type: in vivo; settings: for extent of hippocampal damage: 68 mM in a volume of 1 μl into hippocampus
Description: AChE peptide was injected into rat hippocampus and subsequently the brains were examined under a light microscope. The hippocampus was-chosen as the most suitable brain structure in which to show effects of AChE peptide as it is very vulnerable to neurotoxins and damage from other causes such as ischaemia. Post mortem histological. examination or pre mortem brain scans reveal prominent decay of the hippocampus in Alzheimer brains.
Male Wistar or Dark Agouti (DA) rats were anaesthetised with Avertin and injected with 0.5 μl of 2 mM AChE peptide (DA rats received 1 μl of 1 mM) in the right hippocampus. An equivalent control injection was made in the left hippocampus. After recovery from the anaesthetic and a few days in their home cages rats were deeply anaesthetised and transcardially perfused with formalin preservative, the brains removed and prepared for microscopical examination. Sections of 50 μm were cut on a sliding microtome and stained with cresyl violet to show the nerve cells. The amount of neural damage was estimated by counting the length of hippocampal cell layers destroyed (quantified in terms of microscope graticule units).
A small number of injections were made into the hippocampus of DA rats with the reference neurotoxin NMDA (N-methyl D-aspartic acid) at an equivalent concentration to that of AChE peptide used above (1 μl of 1 mM).
(§1) Since the concentration of NMDA used to produce experimental neural destruction (as a tool in experimental psychology to examine the function of a particular brain region) is much higher (typically 68 mM) a small number of rats were injected with this larger amount, in a volume of 1 μl, in comparison with an equivalent amount of AChE peptide.

[1] = Body weight and condition after high-dose hippocampal injection; assay type: in vivo, rat; settings: higher dose (68 mM, 1 μl) into hippocampus, one of two rats, 5 days after surgery
Description: as §1
One of the two rats given AChE peptide at this higher dose looked very sick 5 days after the surgery and was therefore deeply anaesthetised and the brain prepared for microscopy. […] The other rat survived 11 days until it was finally anaesthetised, but it too lost some weight. This supported informal observations from the earlier, low dose experiment that AChE peptide treated rats might lose more weight than is normal after such surgery.

[2] = Post-operative body weight after injection into S/DB; assay type: in vivo, rat; settings: 2 μl of 33 mM into S/DB, Wistar rats, weighed daily
Description: (§2) The experimental group (n=6 rats) received an injection of AChE peptide into the medial septum/vertical limb of the diagonal band (S/DB). Control rats (n=6 rats) received an equal amount of the vehicle, water, in the same way, while another group (n=5 rats) received an injection of the reference neurotoxin NMDA at an equivalent dose to that of AChE peptide (2 μl of 33 mM). Each injection was given slowly over 15 minutes through a 34 gauge stainless steel injection needle coupled by polyethylene tubing to a 10 μl Hamilton syringe. Co-ordinates used on the stereotaxic instrument (Kopf) were 0.7 mm anterior to bregma, 1.0 mm lateral to midline and 6.5 mm from skull surface at bregma. The incisor bar was set at −0.5 mm for all rats, resulting in approximately a level skull surface between the bregma and lambda sutures. The arm of the stereotaxic instrument was angled at 10 degrees to vertical to avoid damage to the sagittal sinus.
Post-operatively the rats were weighed every day. Approximately two weeks after operation they were again food restricted and tested for performance on the T-maze.

mice = test: Injection of AChE peptide into mice; assay type: in vivo
[3] = system: medial septum/vertical limb of the diagonal band (S/DB); test: Histology of septal region after injection into S/DB; assay type: in vivo, rat; settings: for histological appearance of the septal area: 2 μl of 33 mM into S/DB, Example 2
Description: as §2
After a final weighing, rats were killed by stunning followed by decapitation. The hippocampus and cingulate/secondary motor cortex were rapidly removed and stored frozen at −80 degrees Celsius. The block of brain anterior to the hippocampus was placed in 30% sucrose formalin and left to fix for at least a week prior to sectioning on a microtome and staining with cresyl violet. Microscopical brain examination was subsequently performed as in earlier experiments.
Wistar rats were anaesthetised and injected as described in Example 2, with one of the following. AChE peptide, the equivalent peptide from BuChE, a scrambled version of the AChE peptide: HSWRAEVFHKYWSM, NMDA and water as a control. The number of rats in each group was between four and five.
Brain examination was performed as described in Example 2.

[4] = system: choline acetyltransferase; test: Cortical choline acetyltransferase (ChAT) level after NBM lesion; assay type: in vivo, rat; settings: bilateral 2 μl of 16.5 mM into NBM
Description: After a period of post-operative testing, the rats were terminally anaesthetised and perfused intracardially with ice cold saline. The brain was removed and a portion of cortex (including the frontal, parietal and temporal areas, but excluding visual and cingulate cortex) was removed from each hemisphere and frozen. The remaining brain was preserved in formalin and subsequently coronally sectioned and stained with cresyl violet. The position and extent of the lesions was then determined by microscopical examination.
The frozen cortical tissue was used to determine the effectiveness of the NBM lesion. Using the method of Fonnum (J. Neurochem. (1975) 24, 407-409), the levels of the acetylcholine synthesising enzyme, choline acetyltransferase, (ChAT) were measured.
Since a proportion of this enzyme is due to the cholinergic innervation from the NBM, a decrease of ChAT would corroborate visualisation of a lesion at the site of injection in the NBM itself.

[5] = system: nucleus basalis of Meynert (NBM); test: Serial choice reaction task (attention) after injection into NBM; assay type: in vivo, rat; settings: bilateral 2 μl of 16.5 mM into NBM, light stimulus 1.0 s
Description: Testing for loss of cognitive function reminiscent of loss of such function associated with Alzheimer's Disease in humans was carried out using a serial choice reaction task, a preferred form of task for testing for attentional deficits, as described by Higgs et al. (Higgs, S., Deacon, R. M. J. & Rawlins, J. N. P., European Journal of Neuroscience (2000)12, 1781-1788).
A rat testing cubicle with a retractable lever on the front wall was employed as illustrated in FIG. 11. The back wall was concave with three food magazines, one in each corner and one in the centre. A light was present within each corner magazine. Magazine entries were recorded by microswitches attached to panels covering the entrances. The entire apparatus was computer-controlled.
Rats are trained to press the lever when it is presented. […] The rat will find a reward (a 45 mg food pellet) respectively in the left, right or centre magazine tray.
A cohort of rats were trained on the attentional task (light stimulus duration 1.0 s). When performance was stable, they were divided into three matched groups, each with seven or more rats. Under deep anaesthesia, each rat was placed in a stereotaxic frame, with the incisor bar set at −3 mm to give a level head. Bilateral-injections, each of 2 μl, were made into the NBM area (see FIG. 13). The control group of rats received injections of water. […]

[6] = system: medial septum/vertical limb of the diagonal band (S/DB); test: Delayed non-matching to sample (DNMS) T-maze task after injection into S/DB; assay type: in vivo, rat; settings: 2 μl of 33 mM into S/DB
Description: Wistar rats (175-200 g) were received from the suppliers (Harlan UK) and acclimated to the laboratory for three weeks before being trained on a delayed non-matching to sample (DNMS) task on an elevated wooden T-maze. In this task they are mildly food deprived and receive food pellets with enhanced flavour and nutritional content as rewards.
The DNMS task capitalises on the rat's innate tendency to alternate which cross arm of the T-maze it runs along; this derives from its normal foraging behaviour, where returning to a place from which it has recently eaten all the food is unlikely to pay dividends.
Each rat is placed at the start of the stem of the T-maze and allowed to run to retrieve a food pellet at the end of one cross arm. Access to the other cross arm is blocked. This block is then removed and the rat returned to the start. Normal rats choose to go to the opposite arm to that recently visited on this free choice part of the trial. After being allowed to consume their reward (if a correct choice was made) they are returned to their home cage and their cagemate is then tested in the same way. Typically a squad of ten rats is run in a “round robin’ fashion, so up to fifteen minutes intervenes between one trial and the next. Normal rats excel at this task once initial training (chiefly to familiarise them with the new smells on the maze and the elevated position off the floor) is complete.
The rats in the present experiment were given forty trials on the T-maze, then divided into groups matched for performance (all were above 90% correct). They were returned to unlimited food for a few days before undergoing surgery under Avertin anaesthesia.
The experimental group (n=6 rats) received an injection of AChE peptide into the medial septum/vertical limb of the diagonal band (S/DB). Control rats (n=6 rats) received an equal amount of the vehicle, water, in the same way, while another group (n=5 rats) received an injection of the reference neurotoxin NMDA at an equivalent dose to that of AChE peptide (2 μl of 33 mM). […]

[7] = system: medial septum/vertical limb of the diagonal band (S/DB); test: Locomotor activity cages after injection into S/DB; assay type: in vivo, rat; settings: 2 μl of 33 mM into S/DB, two successive days
Description: as §2
After completion of T-maze testing rats were returned to a free feeding regimen before being tested on two successive days in standard locomotor activity cages. Each cage was equipped with two infrared beams to detect movement.

Row | SMILES | extent of hippocampal damage (rat hippocampus) | mean units of damage (length of hippocampal cell layers destroyed) (rat hippocampus; Wistar rats, 0.5 μl of 2 mM in right hippocampus, P=0.008 vs control side) | units of damage (length of hippocampal cell layers destroyed, microscope graticule units) (rat hippocampus; most symmetrically injected DA rat, 1 μl of 1 mM in right hippocampus) | body weight after surgery [1] | post-operative weight loss and recovery [2] | neurotoxic effects in mice (mice) | histological appearance of the septal area [3] | tissue loss in the medial septal region ([3]; Example 3, Wistar rats injected as in Example 2) | lesion size relative to NMDA ([3]; S/DB region) | time for lesion to form after introduction into S/DB ([3]; S/DB region, time course by MRI) | cholinergic loss in the cortex as measured by HPLC ChAT level [4] | histological examination of hippocampal brain sections (rat hippocampus; DA rats, 1 μl of 1 mM into hippocampus) | proportion of correct lever-light trials [5] | T-maze performance in subsequent trials ([6]; after first block of ten trials) | T-maze performance with 45 second delay between sample and choice ([6]; delay about 45 s) | T-maze performance, twenty massed trials ([6]; massed trials) | locomotor activity (ANOVA, group effect) [7]
1 | CSCC[C@H](NC(=O)[C@H](Cc1ccc(O)cc1)NC(=O)[C@H](CO)NC(=O)[C@H](CO)NC(=O)[C@H](Cc1c[nH]c2ccccc12)NC(=O)[C@H](CCCNC(=N)N)NC(=O)[C@H](Cc1c[nH]cn1)NC(=O)[C@H](Cc1ccccc1)NC(=O)[C@H](CCC(=O)O)NC(=O)[C@H](C)N)C(=O)N[C@H](C(=O)N[C@@H](Cc1c[nH]cn1)C(=O)N[C@@H](Cc1c[nH]c2ccccc12)C(=O)N[C@@H](CCCCN)C(=O)O)C(C)C [AChE peptide, AEFHRWSSYMVHWK] (H-AEFHRWSSYMVHWK-OH) | local hippocampal damage | 155.3 units | 119 units | Severe body weight loss | statistically significantly slower than either controls or NMDA rats to recover their weight | Neurotoxic effects have also been observed | striking damage | Significant tissue loss | an order of magnitude larger | less than an hour | – | – | – | – | – | – | –
2 | CN[C@H](CC(=O)O)C(=O)O [NMDA, N-methyl D-aspartic acid] | more widespread | – | – | – | lost more weight than controls | – | only small effects | – | – | – | 12.1% | small areas of neural damage | didn't produce a significant reduction | returned to control levels | non-significant decrease | little effect | not significantly different
